Experiment: Nonintrinsic dissolution in water
Format: physicochemical
Experimental: Dissolutions were carried out in a standard Van-Kel dissolution bath. The medium was either water, 90% water/10% ethanol, or 95% water/5% ethanol. For nonintrinsic dissolution experiments, SPM and SPA powders were sieved and fractions that passed through a 75 μm sieve were used. For intrinsic dissolution experiments, tablets were prepared in a standard Woods apparatus by compression of 400 mg of material at 3000 psig for 1 minute.
Each experiment was carried out by placing 900 mL of medium into one of the Van-Kel dissolution vessels and allowing it to equilibrate at 37° C. The test materials were added (powder or tablet) and samples were withdrawn by syringe at the specified times (see Table 4). Each sample was filtered through a 0.2μ nylon syringe filter. Three dissolution experiments were carried out for each lot of suspension.
The rates of dissolution of SPM and SPA were compared. […] These studies were conducted by slurrying sieved (<75 μm) sodium phenytoin powder in pure water and measuring the concentrations in solution at various times by HPLC. Unfortunately, solid crystallized from the solutions withdrawn for analysis as they cooled, rendering the data invalid for determination of dissolution rate. Even so, all of the samples withdrawn contained about 5 mg/mL of sodium phenytoin, including those withdrawn 5 minutes after the slurries were prepared. […] A decrease in the concentration of dissolved sodium phenytoin with time is consistent with the reported reaction of sodium phenytoin with acids, even carbonic acid formed by dissolution of atmospheric carbon dioxide in water, to give relatively water-insoluble phenytoin.
Samples were analyzed by high-performance liquid chromatography (HPLC) on a BAS 480 HPLC system equipped with a UV/VIS detector and a TSP AS 100 autosampler, and controlled with INJECT software. A Phenomenex Hypersil C18 BDS column (5μ particle size, 4.6×150 mm) was used. The mobile phase was prepared by mixing water, methanol, and acetic acid in a 60:40:0.5 volume ratio. Analyses were carried out at a flow rate of 1 mL/minute with the UV/VIS detector set at 254 nm. The injection volume was 5 μL.
A standard solution consisting of 74.8 μg/mL of sodium phenytoin in mobile phase was injected three times before and three times after each series of analyses. Each unknown sample was injected three times without dilution. The peak areas at 254 nm were recorded and averaged for each time point. The amount of sodium phenytoin in solution at each time point was calculated from the line equation of the calibration curve: […]

O=C1NC(=O)C(c2ccccc2)(c2ccccc2)N1 [SPM, sodium phenytoin monohydrate]
amount of sodium phenytoin at extended reaction times versus earlier samples (24 and 72 hours): appeared to be less than the amount found in the earlier samples | dissolution rate in water (nonintrinsic dissolution experiments): high enough that differences could not be determined | sodium phenytoin in samples withdrawn (pure water, including 5 minutes after slurries were prepared, data invalid for dissolution rate): about 5 mg/mL | dissolution in water (sieved powder (<75 μm), pure water): dissolve rapidly and extensively in water

From patent publication US6245917A, “Crystalline sodium phenytoin monohydrate” (Warner-Lambert Company, priority 1999, dated 2001)
